Active and inactive are the calls of the source. The rule behind the calls is not given here.
System: CCRIS mutagenicity, Ames/micronucleus/aberration tests
Test: CCRIS mutagenicity studies
[1] = Test System: AMES SALMONELLA TYPHIMURIUM, Strain/Indicator: TA98, Metabolic Activation: NONE, Method: STANDARD PLATE
[2] = Test System: AMES SALMONELLA TYPHIMURIUM, Strain/Indicator: TA100, Metabolic Activation: NONE, Method: STANDARD PLATE

## CC(=O)O[C@H]1C(=O)[C@@]2(C)[C@H]([C@H](OC(=O)c3ccccc3)[C@]3(O)C[C@H](OC(=O)[C@H](O)[C@@H](NC(=O)c4ccccc4)c4ccccc4)C(C)=C1C3(C)C)[C@]1(OC(C)=O)CO[C@@H]1C[C@@H]2O
End Point: IN VITRO CHROMOSOMAL ABERRATIONS, Test System: PERIPHERAL HUMAN BLOOD LYMPHOCYTES, Metabolic Activation: NONE
  mutagenic call: active; positive (ploidy changes)
End Point: In vitro micronucleus, Test System: Human lymphoblastoid TK6 cells, Metabolic Activation: None
  mutagenic call: active; positive (p<0.001)
End Point: In vivo micronucleus, Test System: Micronucleated, binucleated and multinucleated hepatocytes, Species: Mouse, Strain/Sex: ddY/Male, Route: Intravenous
  mutagenic call: active; positive for micronucleated, binucleated and multinucleated cells when agent adm
Test System: AMES SALMONELLA TYPHIMURIUM, Strain/Indicator: TA97, Metabolic Activation: NONE, Method: STANDARD PLATE
  mutagenic call: inactive; negative
Test System: AMES SALMONELLA TYPHIMURIUM, Strain/Indicator: TA97, Metabolic Activation: S-9, Method: STANDARD PLATE
  mutagenic call: inactive; negative
[1]
  mutagenic call: inactive; negative
Test System: AMES SALMONELLA TYPHIMURIUM, Strain/Indicator: TA98, Metabolic Activation: S-9, Method: STANDARD PLATE
  mutagenic call: inactive; negative
[2]
  mutagenic call: inactive; negative
Test System: AMES SALMONELLA TYPHIMURIUM, Strain/Indicator: TA100, Metabolic Activation: S-9, Method: STANDARD PLATE
  mutagenic call: inactive; negative
Test System: AMES SALMONELLA TYPHIMURIUM, Strain/Indicator: TA102, Metabolic Activation: NONE, Method: STANDARD PLATE
  mutagenic call: inactive; negative
Test System: AMES SALMONELLA TYPHIMURIUM, Strain/Indicator: TA102, Metabolic Activation: S-9, Method: STANDARD PLATE
  mutagenic call: inactive; negative
Test System: Mouse lymphoma, Strain/Indicator: L5178Y (Tk+/Tk-), Metabolic Activation: None, Method: Microwell
  mutagenic call: active; positive

## O=NN1CCCCCC1
Test System: AMES SALMONELLA TYPHIMURIUM, Strain/Indicator: TA100, Metabolic Activation: RABBIT, LIVER, S-9, Method: PREINCUBATION
  mutagenic call: active; positive
Test System: AMES SALMONELLA TYPHIMURIUM, Strain/Indicator: TA100, Metabolic Activation: RABBIT, LUNG MACROPHAGES, Method: PREINCUBATION
  mutagenic call: inactive; negative
Test System: AMES SALMONELLA TYPHIMURIUM, Strain/Indicator: TA100, Metabolic Activation: RABBIT, LUNG, CLARA CELLS, Method: PREINCUBATION
  mutagenic call: inactive; negative
Test System: AMES SALMONELLA TYPHIMURIUM, Strain/Indicator: TA100, Metabolic Activation: RABBIT, LUNG, TYPE II CELLS, Method: PREINCUBATION
  mutagenic call: inactive; negative
Test System: AMES SALMONELLA TYPHIMURIUM, Strain/Indicator: TA1530, Metabolic Activation: RABBIT, LIVER, S-9, Method: PREINCUBATION
  mutagenic call: active; positive
Test System: AMES SALMONELLA TYPHIMURIUM, Strain/Indicator: TA1530, Metabolic Activation: RABBIT, LUNG MACROPHAGES, Method: PREINCUBATION
  mutagenic call: inactive; negative
Test System: AMES SALMONELLA TYPHIMURIUM, Strain/Indicator: TA1530, Metabolic Activation: RABBIT, LUNG, CLARA CELLS, Method: PREINCUBATION
  mutagenic call: inactive; negative
Test System: AMES SALMONELLA TYPHIMURIUM, Strain/Indicator: TA1530, Metabolic Activation: RABBIT, LUNG, TYPE II CELLS, Method: PREINCUBATION
  mutagenic call: inactive; negative
Test System: UDS RABBIT LUNG CLARA CELLS, Strain/Indicator: THY INCORP, Metabolic Activation: NONE, Method: LIQUID SCINTILLATION COUNTING
  mutagenic call: active; positive
Test System: UDS RABBIT LUNG MACROPHAGES, Strain/Indicator: THY INCORP, Metabolic Activation: NONE, Method: LIQUID SCINTILLATION COUNTING
  mutagenic call: inactive; negative
Test System: UDS RABBIT LUNG TYPE II CELLS, Strain/Indicator: THY INCORP, Metabolic Activation: NONE, Method: LIQUID SCINTILLATION COUNTING
  mutagenic call: inactive; negative

## Cc1cc(O)c2c(c1)C(=O)c1cccc(O)c1C2=O
End Point: IN VITRO CHROMOSOMAL ABERRATIONS, Test System: CHO CELLS, Metabolic Activation: MALE WISTAR RAT, LIVER, S-9
  mutagenic call: inactive; negative; tested to limit of solubility
End Point: IN VITRO CHROMOSOMAL ABERRATIONS, Test System: CHO CELLS, Metabolic Activation: NONE
  mutagenic call: inactive; negative; tested to limit of solubility
Test System: AMES SALMONELLA TYPHIMURIUM, Strain/Indicator: TA98, Metabolic Activation: NONE, Method: PREINCUBATION
  mutagenic call: inactive; negative
[1]
  mutagenic call: inactive; negative
Test System: AMES SALMONELLA TYPHIMURIUM, Strain/Indicator: TA98, Metabolic Activation: RAT, LIVER, S-9, AROCLOR 1254, Method: STANDARD PLATE
  mutagenic call: inactive; negative
Test System: AMES SALMONELLA TYPHIMURIUM, Strain/Indicator: TA98, Metabolic Activation: RAT, LIVER, S-9, PCB, Method: PREINCUBATION
  mutagenic call: inactive; negative
Test System: AMES SALMONELLA TYPHIMURIUM, Strain/Indicator: TA100, Metabolic Activation: NONE, Method: PREINCUBATION
  mutagenic call: inactive; negative
[2]
  mutagenic call: inactive; negative
Test System: AMES SALMONELLA TYPHIMURIUM, Strain/Indicator: TA100, Metabolic Activation: RAT, LIVER, S-9, AROCLOR 1254, Method: STANDARD PLATE
  mutagenic call: inactive; negative
Test System: AMES SALMONELLA TYPHIMURIUM, Strain/Indicator: TA100, Metabolic Activation: RAT, LIVER, S-9, PCB, Method: PREINCUBATION
  mutagenic call: inactive; negative
Test System: AMES SALMONELLA TYPHIMURIUM, Strain/Indicator: TA102, Metabolic Activation: NONE, Method: PREINCUBATION
  mutagenic call: active; positive
Test System: AMES SALMONELLA TYPHIMURIUM, Strain/Indicator: TA102, Metabolic Activation: RAT, LIVER, S-9, Method: PREINCUBATION
  mutagenic call: active; positive
Test System: AMES SALMONELLA TYPHIMURIUM, Strain/Indicator: TA1535, Metabolic Activation: NONE, Method: STANDARD PLATE
  mutagenic call: inactive; negative
Test System: AMES SALMONELLA TYPHIMURIUM, Strain/Indicator: TA1535, Metabolic Activation: RAT, LIVER, S-9, AROCLOR 1254, Method: STANDARD PLATE
  mutagenic call: inactive; negative
Test System: AMES SALMONELLA TYPHIMURIUM, Strain/Indicator: TA1537, Metabolic Activation: RAT, LIVER, S-9, AROCLOR 1254, Method: STANDARD PLATE
  mutagenic call: active; positive
Test System: AMES SALMONELLA TYPHIMURIUM, Strain/Indicator: TA1537, Metabolic Activation: RAT, LIVER, S-9, Method: PREINCUBATION
  mutagenic call: active; positive
Test System: AMES SALMONELLA TYPHIMURIUM, Strain/Indicator: TA1538, Metabolic Activation: NONE, Method: STANDARD PLATE
  mutagenic call: inactive; negative
Test System: AMES SALMONELLA TYPHIMURIUM, Strain/Indicator: TA1538, Metabolic Activation: RAT, LIVER, S-9, AROCLOR 1254, Method: STANDARD PLATE
  mutagenic call: inactive; negative

Source: PubChem BioAssay AID1259407 (Chemical Carcinogenesis Research Information System (CCRIS), 2018)
